Key:
Aurora B = molecular target: T1, Aurora B (Homo sapiens, UniProt Q96GD4); experiment: Aurora B inhibition assay (Z-Lyte); type: biochemical; details: 28 nM Aurora B, 128 μM ATP; read-out: IC50 Ranges Aurora B
T1 construct: purchased Invitrogen PV3970
Description: Aurora B inhibition was determined using the Z-Lyte assay kit from Invitrogen. The assay was performed using the recommended manufacturer's instructions with 128 μM ATP and 28 nM Aurora B (Invitrogen cat #PV3970). The % inhibition values were determined according to the manufacturer's directions and IC50 values were obtained using a non-linear 4 point logistic curve fit (XLfit4, IDBS)

human TTK = molecular target: T2, human TTK (Homo sapiens, UniProt P33981); experiment: TTK inhibition assay (indirect ELISA); type: biochemical; details: GST-TTK 0.68 nM, 16 μM ATP; read-out: IC50 Ranges TTK
T2 construct: amino terminal GST fusion of full length human TTK; purchased Invitrogen
T2 sequence (P33981 1-857): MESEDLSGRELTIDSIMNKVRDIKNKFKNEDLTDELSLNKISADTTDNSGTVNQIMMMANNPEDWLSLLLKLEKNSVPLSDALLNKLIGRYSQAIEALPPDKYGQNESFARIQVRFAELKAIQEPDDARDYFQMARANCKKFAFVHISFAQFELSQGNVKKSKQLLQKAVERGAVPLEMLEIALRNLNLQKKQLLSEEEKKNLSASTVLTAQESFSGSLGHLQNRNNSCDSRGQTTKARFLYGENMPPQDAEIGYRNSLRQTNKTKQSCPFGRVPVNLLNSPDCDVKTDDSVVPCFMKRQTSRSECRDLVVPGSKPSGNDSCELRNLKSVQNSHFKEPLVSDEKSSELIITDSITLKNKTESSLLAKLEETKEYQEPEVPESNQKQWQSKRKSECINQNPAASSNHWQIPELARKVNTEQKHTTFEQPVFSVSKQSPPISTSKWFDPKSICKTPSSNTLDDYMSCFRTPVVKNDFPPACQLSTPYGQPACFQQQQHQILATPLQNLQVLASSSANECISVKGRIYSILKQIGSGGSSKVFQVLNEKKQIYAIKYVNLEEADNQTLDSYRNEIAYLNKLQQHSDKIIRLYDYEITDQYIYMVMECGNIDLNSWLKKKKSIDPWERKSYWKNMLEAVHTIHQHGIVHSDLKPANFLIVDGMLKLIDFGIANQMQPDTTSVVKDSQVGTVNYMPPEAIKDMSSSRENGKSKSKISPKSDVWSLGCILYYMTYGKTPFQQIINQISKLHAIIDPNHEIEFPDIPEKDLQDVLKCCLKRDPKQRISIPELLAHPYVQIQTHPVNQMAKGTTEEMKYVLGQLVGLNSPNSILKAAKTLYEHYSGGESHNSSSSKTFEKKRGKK

[1] = system: Ovarian TICs, 2393A ovarian; experiment: Ovarian tumor-initiating cell growth inhibition (Alamar Blue); type: cell-based; details: 144 h, 6 days, read-out: GI50 range 2393A ovarian
Description: Materials and Methods: Non-tissue or tissure cultured treated T-75 flask and 96-well plates were purchased from VWR. Vitamin B-27 supplement, MEM NEAA (minimum essential medium non essential amino acids), sodium pyruvate, L-glutamine, N2 supplement, penicillin-streptomycin and fungizone/amphotericin B were obtained from Invitrogen. Lipid mixture, heparin and EGF were purchased from Sigma; bFGF from BD Biosciences. Colon tumor initiating cells (TICs) were routinely maintained using non-tissue cultured treated T-75 flasks in DMEM:F12 medium containing 0.2XB-27 supplement, 4 ug/ml heparin, 1XMEM NEAA, 1× sodium pyruvate, 1 mM glutamine, 10 pg/ul bFGF, 20 pg/ul EGF, 1×N2 supplement, lipid mixture, penicillin-streptomycin and fungizone/amphotericin B. Ovarian TICs were routinely maintained using tissue cultured treated T-75 flasks in DMEM:F12 medium containing 1XB-27 supplement, 4 ug/ml heparin, 20 pg/ul bFGF, 20 pg/ul EGF and penicillin-streptomycin.
Compounds described herein were dissolved in DMSO and further diluted in cell culture medium for GI50 determination. Colon TICs were trypsinized and seeded into non-tissue cultured treated 96-well plates with 4,000 cells/well. After 24 h, compound was added into the cell culture at different concentrations, and the final concentration of DMSO was adjusted to 0.1%. Cells were then cultured at 37° C. for 9 days. Ovarian TICs were trypsinized and seeded into tissue cultured treated 96-well plates with 1,000 cells/well. After 24 h, compound was added into the cell culture at different concentrations, and the final concentration of DMSO was adjusted to 0.1%. Cells were then cultured at 37° C. for 6 days. Cell viability was assessed by Alamar Blue assay: 10 ul of Alamar Blue was added into each well. After 4 hours incubation at 37° C., fluorescence was recorded at excitation 544 and emission 590. GI50 (Growth inhibition) was calculated using GraphPad Prism 4.0 software.

[2] = system: MDA-MB-468 breast cancer cells; experiment: Cell growth inhibition, Sulforhodamine B assay, MDA-MB-468; type: cell-based; details: Homo sapiens, 120 h, 5 days culture, SRB assay, read-out: Cell Line GI50 Range MDA-MB-468
[3] = system: Colon tumor initiating cells (TICs), 12 colon; experiment: Colon tumor-initiating cell growth inhibition (Alamar Blue); type: cell-based; details: 216 h, 9 days, read-out: GI50 range 12 colon
[4] = system: HCT116 colon cancer cells; experiment: Cell growth inhibition, Sulforhodamine B assay, HCT116; type: cell-based; details: Homo sapiens, HCT-116, 120 h, 5 days culture, SRB assay, read-out: Cell Line GI50 Range HCT116
human PLK4 = molecular target: T3, human PLK4 (Homo sapiens, UniProt O00444); experiment: PLK4 inhibition assay (indirect ELISA); type: biochemical; details: GST-PLK4 4 nM, 15 μM ATP; read-out: IC50 Ranges PLK4
T3 construct: amino terminal GST fusion of residues 1-391 of human PLK4; made in house; host or cells: E. coli
T3 sequence (O00444 1-391): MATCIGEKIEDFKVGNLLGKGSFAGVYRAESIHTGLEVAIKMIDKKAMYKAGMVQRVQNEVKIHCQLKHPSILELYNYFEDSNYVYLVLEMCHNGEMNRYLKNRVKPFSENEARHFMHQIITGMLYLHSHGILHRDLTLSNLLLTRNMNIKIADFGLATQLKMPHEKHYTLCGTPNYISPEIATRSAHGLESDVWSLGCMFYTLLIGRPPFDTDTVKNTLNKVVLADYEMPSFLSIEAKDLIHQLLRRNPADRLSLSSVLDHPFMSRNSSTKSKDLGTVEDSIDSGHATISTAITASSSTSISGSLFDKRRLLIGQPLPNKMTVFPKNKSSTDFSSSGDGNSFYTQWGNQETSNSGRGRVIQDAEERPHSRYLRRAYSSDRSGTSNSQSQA
Method in brief: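 Compounds were tested either at a single 10 μM dose or across 10-point titrations (typically 0.5 to 0.001 μM), preincubated 15 min with 4 nM GST-PLK4 (human 1-391, dephosphorylated) before 15 μM ATP was added. MBP substrate phosphorylation over 30 min, pH 7.5 HEPES/MgCl2 buffer, read by HRP/TMB ELISA (450 nm). % inhibition vs. high-activity control; IC50 by logistic fit.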

[5] = system: PA-1 ovarian cancer cells; experiment: Cell growth inhibition, Sulforhodamine B assay, PA-1; type: cell-based; details: 120 h, 5 days culture, SRB assay, read-out: Cell Line GI50 Range PA-1
Description: Breast cancer cells (MDA-MB-231, MDA-MB-468), colon cancer cells (HCT116, HT29) and ovarian cancer cells (PA-1, OVCAR-3) were seeded (1000 to 4000 in 80 μl per well depending on the cell growth rate) into 96 well plates 24 hours before compound overlay. Compounds were prepared as 10 mM stock solutions in 100% DMSO which were diluted with DMEM (Dulbecco's Modified Eagle's Medium) cell growth Medium (Invitrogen, Burlington, ON, Canada) containing 10% FBS (Fetal Bovine Serum) to concentrations ranging from 50 nM to 250 μM. Aliquots (20 μl) from each concentration were overlaid to 80 μl of the pre-seeded cells in the 96 well plates to make final concentrations of 10 nM to 50 μM. The cells were cultured for 5 days before the Sulforhodamine B assay (SRB) was performed to determine the compound's cell growth inhibition activity.
Sulforhodamine B (purchased from Sigma, Oakville, ON, Canada) is a water-soluble dye that binds to the basic amino acids of the cellular proteins. Thus, colorimetric measurement of the bound dye provides an estimate of the total protein mass that is related to the cell number. the cells are fixed in situ by gently aspirating off the culture media and adding 50 μl ice cold 10% Trichloroacetic Acid (TCA) per well and incubate at 4° C. for 30-60 min, The plates are washed with water five times and allowed to air dry for 5 min. Addition of 50 μl 0.4% (w/v) SRB solution in 1% (v/v) acetic acid to each well and incubatation for 30 min at RT completes the staining reaction. Following staining, plates are washed four times with 1% acetic acid to remove unbound dye and then allowed to air dry for 5 min. The stain is solubilized with 100 μl of 10 mM Tris pH 10.5 per well. Absorbance is read at 570 nm.
The percentage (%) of relative growth inhibition was calculated by comparing to DMSO treated only cells (100%). […] The GI50 was calculated using GraphPad PRISM software (GraphPad Software, Inc., San Diego, Calif., USA).

HT29 colon cancer cells = experiment: Cell growth inhibition, Sulforhodamine B assay, HT29; type: cell-based; details: Homo sapiens, HT-29, 120 h, 5 days culture, SRB assay, read-out: Cell Line GI50 Range HT29
[6] = system: MDA-MB-231 breast cancer cells; experiment: Cell growth inhibition, Sulforhodamine B assay, MDA-MB-231; type: cell-based; details: Homo sapiens, 120 h, 5 days culture, SRB assay, read-out: Cell Line GI50 Range MDA-MB-231
[7] = system: OVCAR-3 ovarian cancer cells; experiment: Cell growth inhibition, Sulforhodamine B assay, OVCAR-3; type: cell-based; details: Homo sapiens, 120 h, 5 days culture, SRB assay, read-out: Cell Line GI50 Range OVCAR-3

T1 sequence (Q96GD4 whole entry): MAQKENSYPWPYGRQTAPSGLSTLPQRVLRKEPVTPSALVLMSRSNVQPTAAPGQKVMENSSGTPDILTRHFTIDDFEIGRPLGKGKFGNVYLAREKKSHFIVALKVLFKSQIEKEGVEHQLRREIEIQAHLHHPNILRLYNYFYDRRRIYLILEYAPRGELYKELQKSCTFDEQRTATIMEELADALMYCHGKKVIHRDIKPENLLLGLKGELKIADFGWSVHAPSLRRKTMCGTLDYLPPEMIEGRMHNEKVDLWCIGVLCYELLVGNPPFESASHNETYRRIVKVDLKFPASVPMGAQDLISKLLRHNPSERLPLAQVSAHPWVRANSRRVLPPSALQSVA

| SMILES | IC50 (Aurora B) [µM] | IC50 (human TTK) [µM] | GI50 [1] [µM] | GI50 [2] [µM] | GI50 [3] [µM] | GI50 [4] [µM] | IC50 (human PLK4) [µM] | GI50 [5] [µM] | GI50 (HT29 colon cancer cells) [µM] | GI50 [6] [µM] | GI50 [7] [µM] |
| --- | --- | --- | --- | --- | --- | --- | --- | --- | --- | --- | --- |
| O=CN1CCC(Oc2ccc(-c3n[nH]c4ccc(NC(=O)C(c5ccsc5)N5CCCC5)cc34)cc2)CC1 (centres unmarked) [Example A118] | ≤ 5 | ≤ 5 | ≤ 5 | ≤ 5 | ≤ 5 | ≤ 5 | ≤ 5 | ≤ 5 | ≤ 5 |  |  |
| O=CN1CCC(Oc2ccc(-c3n[nH]c4ccc(C(=O)NC(c5ccsc5)C5CC5)cc34)cc2)CC1 (centres unmarked) [Example A186, N-(cyclopropyl(thiophen-3-methyl-3-yl)methyl)-3-(4-((1-formylpiperidin-4-yl)oxy)phen)-1H-indazole-5-carboxamide] | ≤ 5 | ≤ 5 | ≤ 5 | ≤ 5 | ≤ 5 | ≤ 5 | ≤ 5 | ≤ 5 |  |  |  |
| CC1(O)CCN(c2ccc(-c3n[nH]c4ccc(NC(=O)C(c5ccsc5)N5CCCC5)cc34)cc2)CC1 (centres unmarked) [Example A89, N-(3-(4-(4-hydroxy-4-methylpiperidin-1-yl)phenyl)-1H-indazol-5-yl)-2-(pyrrolidin-1-yl)-2-(thiophen-3-yl)acetamide] | ≤ 5 | ≤ 5 | ≤ 5 | ≤ 5 | ≤ 5 | ≤ 5 | ≤ 5 | ≤ 5 | ≤ 5 |  |  |
| CC(C)(O)C1CCN(c2ccc(-c3n[nH]c4ccc(C(=O)NC(c5ccccn5)C5CC5)cc34)cc2)CC1 (centres unmarked) [Example A180, N-(cyclopropyl(pyridin-2-yl)methyl)-3-(4-(4-(2-hydroxypropan-2-yl)piperidin-1-yl)phenyl)-1H-indazole-5-carboxamide] | ≤ 5 | ≤ 5 | ≤ 5 | ≤ 5 | ≤ 5 | ≤ 5 | ≤ 5 | ≤ 5 |  |  |  |
| O=CN1CCC(Oc2ccc(-c3n[nH]c4ccc(C(=O)NC(c5ccccn5)C5CC5)cc34)cc2)CC1 (centres unmarked) [Example A160, N-(cyclopropyl(pyridin-2-yl)methyl)-3-(4-((1-formylpiperidin-4-yl)oxy)phenyl)-1H-indazole-5-carboxamide] | ≤ 5 | ≤ 5 | ≤ 5 | ≤ 5 | ≤ 5 | ≤ 5 | ≤ 5 | ≤ 5 | ≤ 5 |  |  |
| O=C(NC(c1ccccc1)C1CC1)c1ccc2[nH]nc(-c3ccc(OC4CN(C5COC5)C4)cc3)c2c1 (centres unmarked) [Example A190, N-(cyclopropyl(phenyl)methyl)-3-(4-((1-(oxetan-3-yl)azetidin-3-yl)oxy)phenyl)-1H-indazole-5-carboxamide] | ≤ 5 | ≤ 5 | ≤ 5 | ≤ 5 | ≤ 5 | ≤ 5 | ≤ 5 | ≤ 5 |  |  |  |
| O=C(Nc1ccc2[nH]nc(-c3ccc(OC4CCN(C5COC5)CC4)cc3)c2c1)C(c1ccsc1)N1CCCC1 (centres unmarked) [Example A184, N-(3-(4-((1-(oxetan-3-yl)piperidin-4-yl)oxy)phenyl)-1H-indazol-5-yl)-2-(pyrrolidin-1-yl)-2-(thiophen-3-yl)acetamide] | ≤ 5 | ≤ 5 | ≤ 5 | ≤ 5 | ≤ 5 | ≤ 5 | ≤ 5 | ≤ 5 |  | ≤ 5 |  |
| O=CN1CCC(Oc2ccc(-c3n[nH]c4ccc(C(=O)NC(c5ccccc5F)C5CC5)cc34)cc2)CC1 (centres unmarked) [Example A182, N-(cyclopropyl(2-fluorophenyl)methyl)-3-(4-((1-formylpiperidin-4-yl)oxy)phenyl)-1H-indazole-5-carboxamide] | ≤ 5 | ≤ 5 | ≤ 5 | ≤ 5 | ≤ 5 | ≤ 5 | ≤ 5 | ≤ 5 |  |  |  |
| O=C(Nc1ccc2[nH]nc(-c3ccc(N4CCOCC4)cc3)c2c1)C(c1ccsc1)N1CCC1 (centres unmarked) [Example A172, 2-(azetidin-1-yl)-N-(3-(4-morpholinophenyl)-1H-indazol-5-yl)-2-(thiophen-3-yl)acetamide] | ≤ 5 | ≤ 5 | ≤ 5 | ≤ 5 | ≤ 5 | ≤ 5 | ≤ 5 | ≤ 5 | ≤ 5 |  |  |
| O=C(Nc1ccc2[nH]nc(-c3ccc(OC4CCN(C5COC5)CC4)cc3)c2c1)C(c1ccccc1)C1CC1 (centres unmarked) [Example A185, 2-cyclopropyl-N-(3-(4-((1-(oxetan-3-yl)piperidin-4-yl)oxy)phenyl)-1H-indazol-5-yl)-2-phenylacetamide] | ≤ 5 | ≤ 5 | ≤ 5 | ≤ 5 | ≤ 5 | ≤ 5 | ≤ 5 | ≤ 5 |  |  |  |
| CN1CCC(Oc2ccc(-c3n[nH]c4ccc(C(=O)N[C@H](c5sccc5Cl)C5CC5)cc34)cc2)CC1 [Example A167, (S)—N-((3-chlorothiophen-2-yl)(cyclopropyl)methyl)-3-(4-((1-methylpiperidin-4-yl)oxy)phenyl)-1H-indazole-5-carboxamide] | ≤ 5 | ≤ 5 | ≤ 5 | ≤ 5 | ≤ 5 | ≤ 5 | ≤ 5 | ≤ 5 | ≤ 5 |  |  |
| CO[C@@H](C(=O)Nc1ccc2[nH]nc(-c3ccc(OC4CCN(C)CC4)cc3)c2c1)c1ccccc1 [Example A27, (R)-2-methoxy-N-(3-(4-((1-methylpiperidin-4-yl)oxy)phenyl)-1H-indazol-5-yl)-2-phenylacetamide] | ≤ 5 | ≤ 5 | ≤ 5 | ≤ 5 | ≤ 5 | ≤ 5 | ≤ 5 |  | ≤ 5 | 5 to 20 | 5 to 20 |

— US20140051679A1, “KINASE INHIBITORS AND METHOD OF TREATING CANCER WITH SAME” (UNIVERISTY HEALTH NETWORKS, priority 2011, published 2014)
